Legend:
YM155 + Dasatinib = compound: COCC[n+]1c2c(n(Cc3cnccn3)c1C)C(=O)c1ccccc1C2=O [YM155] + Cc1nc(Nc2ncc(C(=O)Nc3c(C)cccc3Cl)s2)cc(N2CCN(CCO)CC2)n1 [Dasatinib] (partner 0.075 µM); assay: relative viability (nuclei count vs DMSO), 5 days (fraction); higher = more cells survive
Procedure, shortened: (§1)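 Five library-drug doses in √10 steps were combined with a fixed anchor-drug dose, or a single drug was given alone, by pin tool to lung cancer cell lines in 1536-well plates the day after seeding. Nuclei were stained and counted after 5 days. Relative viability is the nuclei count in treated wells over that in vehicle wells, taken as the median of duplicate plates.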

Quizartinib + Trametinib = compound: CC(C)(C)c1cc(NC(=O)Nc2ccc(-c3cn4c(n3)sc3cc(OCCN5CCOCC5)ccc34)cc2)no1 [Quizartinib] + CC(=O)Nc1cccc(-n2c(=O)n(C3CC3)c(=O)c3c(Nc4ccc(I)cc4F)n(C)c(=O)c(C)c32)c1 [Trametinib] (partner 0.02 µM); assay: as above
Procedure, shortened: as §1

Cell Line	relative viability (YM155 + Dasatinib; first compound 0.002 µM)	relative viability (YM155 + Dasatinib; first compound 0.006325 µM)	relative viability (YM155 + Dasatinib; first compound 0.02 µM)	relative viability (YM155 + Dasatinib; first compound 0.06325 µM)	relative viability (Quizartinib + Trametinib; first compound 0.001 µM)	relative viability (Quizartinib + Trametinib; first compound 0.003162 µM)	relative viability (Quizartinib + Trametinib; first compound 0.01 µM)	relative viability (Quizartinib + Trametinib; first compound 0.03162 µM)	relative viability (Quizartinib + Trametinib; first compound 0.1 µM)
201T	0.562	0.616	0.558	0.609	0.595	0.696	0.755	0.708	0.742
A-427	0.688	0.734	0.839	0.818	0.517	0.691	0.675	0.591	0.704
ABC-1	0.48	0.374	0.197	0.26	–	–	–	–	–
BEN	0.331	0.269	0.36	0.348	0.998	1.02	1.19	0.925	1.22
CAL-12T	0.255	0.615	0.602	0.393	0.371	0.371	0.345	0.271	0.352
COR-L23	0.503	0.463	0.367	0.221	0.518	0.552	0.595	0.479	0.543
COR-L 105	0.284	0.333	0.312	0.283	0.449	0.445	0.507	–	0.516
ChaGo-K-1	0.463	0.503	0.582	0.629	–	0.881	0.889	0.9	0.865
EKVX	0.647	0.539	0.491	0.62	–	0.327	0.331	0.437	0.284
EMC-BAC-2	0.327	0.355	0.325	0.338	0.811	0.899	0.865	–	0.857
EPLC-272H	0.358	0.371	0.396	0.365	0.291	0.254	0.241	0.283	0.304
H3255	0.379	0.339	0.534	0.405	–	0.561	0.653	0.637	0.663
HARA	0.161	0.278	0.298	0.292	0.508	0.715	0.626	0.555	0.459
HCC-15	0.663	0.56	0.593	0.507	0.403	0.387	0.409	0.326	0.364
HCC-44	–	–	–	–	0.892	1.05	1.03	1.05	1.03
HCC-78	0.313	0.487	0.477	0.47	0.727	0.662	0.848	0.593	0.913
HCC-366	0.578	0.653	0.685	0.581	0.314	0.383	0.294	0.326	0.346
HCC-827	0.337	0.262	0.308	0.345	0.535	0.531	–	0.509	0.572
HOP-62	0.673	0.64	0.706	0.646	0.33	0.367	0.399	0.383	0.304
LC-2-ad	0.529	0.547	0.674	0.649	0.809	0.92	0.899	0.883	0.624
LCLC-97TM1	0.761	0.954	0.739	0.835	0.158	0.186	0.191	0.216	0.184
LCLC-103H	0.446	0.456	0.474	0.531	0.658	0.645	0.664	0.712	0.694
LK-2	0.275	0.271	0.266	0.294	0.796	0.671	0.801	0.765	0.789
LOU-NH91	0.539	0.62	0.569	0.599	0.425	0.756	0.817	0.786	0.826
LU99A	0.562	0.442	0.697	0.518	0.485	0.503	0.554	0.583	0.518

Cell Line	relative viability (YM155 + Dasatinib; first compound 0.002 µM)	relative viability (YM155 + Dasatinib; first compound 0.006325 µM)	relative viability (YM155 + Dasatinib; first compound 0.02 µM)	relative viability (YM155 + Dasatinib; first compound 0.06325 µM)	relative viability (Quizartinib + Trametinib; first compound 0.001 µM)	relative viability (Quizartinib + Trametinib; first compound 0.003162 µM)	relative viability (Quizartinib + Trametinib; first compound 0.01 µM)	relative viability (Quizartinib + Trametinib; first compound 0.03162 µM)	relative viability (Quizartinib + Trametinib; first compound 0.1 µM)
LXF-289	0.233	0.231	0.194	0.224	0.613	0.692	0.709	0.702	0.622
NCI-H23	0.634	0.692	0.785	0.601	0.353	0.346	0.456	0.43	0.312
NCI-H322M	0.238	0.271	0.278	0.26	0.482	0.536	0.617	0.504	0.536
NCI-H358	0.139	0.145	0.161	0.156	0.146	0.146	0.11	–	0.129
NCI-H441	0.609	0.674	0.558	0.495	0.35	0.563	0.45	0.368	0.456
NCI-H460	0.487	0.499	0.582	0.547	–	0.152	0.104	–	0.0587
NCI-H520	0.197	0.174	0.217	0.185	–	0.465	0.673	0.637	0.486
NCI-H522	0.877	0.818	0.915	0.9	0.688	0.741	0.796	0.53	0.727
NCI-H596	0.653	0.58	0.544	0.692	0.794	0.695	0.805	0.77	0.8
NCI-H647	0.151	0.241	0.192	0.149	0.43	0.387	0.508	0.434	0.396
NCI-H650	0.446	0.524	0.509	0.44	0.94	0.938	0.96	0.923	1.06
NCI-H661	0.742	0.802	0.925	0.749	0.575	0.533	0.554	0.552	0.525
NCI-H727	0.359	0.5	0.389	0.352	0.424	0.355	0.366	0.397	0.429
NCI-H838	–	0.291	0.299	0.281	0.516	0.515	0.466	0.514	0.367
NCI-H1355	0.731	0.748	0.781	0.801	0.411	0.43	0.444	0.423	0.357
NCI-H1395	0.359	0.423	0.388	0.444	0.842	0.924	0.979	1.03	1.13
NCI-H1437	0.351	0.324	0.348	0.253	0.458	0.482	0.492	0.49	0.346
NCI-H1563	0.382	0.541	0.453	0.475	–	–	–	–	–
NCI-H1623	0.547	0.529	0.599	0.555	–	–	–	–	–
NCI-H1650	0.283	0.338	0.368	0.353	0.608	0.662	0.556	–	0.564
NCI-H1651	0.437	0.372	0.442	0.39	0.715	0.785	0.898	0.797	0.859
NCI-H1666	0.812	0.791	0.799	0.826	0.856	0.746	0.888	0.79	0.772
NCI-H1734	0.471	0.525	0.495	0.518	0.604	0.64	0.78	0.571	0.698
NCI-H1755	0.449	0.4	0.467	0.453	0.744	0.851	0.856	0.784	0.755
NCI-H1792	0.83	0.606	0.782	0.941	0.374	0.429	0.412	0.457	0.293

Cell Line	relative viability (YM155 + Dasatinib; first compound 0.002 µM)	relative viability (YM155 + Dasatinib; first compound 0.006325 µM)	relative viability (YM155 + Dasatinib; first compound 0.02 µM)	relative viability (YM155 + Dasatinib; first compound 0.06325 µM)	relative viability (Quizartinib + Trametinib; first compound 0.001 µM)	relative viability (Quizartinib + Trametinib; first compound 0.003162 µM)	relative viability (Quizartinib + Trametinib; first compound 0.01 µM)	relative viability (Quizartinib + Trametinib; first compound 0.03162 µM)	relative viability (Quizartinib + Trametinib; first compound 0.1 µM)
NCI-H1793	0.366	0.443	0.338	0.34	0.395	0.435	0.444	0.448	0.452
NCI-H1915	0.311	0.284	0.309	0.301	0.28	0.31	0.331	0.29	0.313
NCI-H1944	0.201	0.202	0.208	0.24	0.453	0.405	0.419	0.448	0.313
NCI-H1975	0.312	0.334	0.352	0.233	0.285	0.381	0.287	0.435	0.322
NCI-H1993	0.568	0.572	0.478	0.539	0.445	0.46	0.576	0.619	0.527
NCI-H2009	0.265	0.264	0.343	0.266	0.266	0.251	0.218	0.246	0.247
NCI-H2023	0.486	0.588	0.52	0.374	0.643	0.504	0.533	–	0.615
NCI-H2085	0.287	0.224	0.23	0.211	0.62	0.528	0.567	0.531	0.515
NCI-H2087	0.765	0.78	0.964	0.775	0.233	0.217	0.223	0.202	0.19
NCI-H2126	0.583	0.673	0.626	0.745	0.575	0.552	0.604	0.53	0.492
NCI-H2170	0.485	0.628	0.572	0.625	0.868	0.907	0.92	1.01	0.947
NCI-H2228	0.432	0.528	0.534	0.661	0.513	0.593	0.484	0.436	0.511
NCI-H2342	0.308	0.336	0.329	0.301	0.799	0.83	0.884	0.9	0.764
NCI-H2347	0.323	0.321	0.35	0.334	0.249	0.271	0.267	0.229	0.287
NCI-H2405	0.191	0.22	0.206	0.21	0.623	0.621	0.599	0.57	0.691
NCI-H3122	0.548	0.641	0.857	0.932	0.21	0.276	0.286	0.275	0.219
PC-3 [JPC-3]	0.917	1.04	1.02	1.01	0.672	0.754	0.705	0.663	0.643
PC-14	0.231	0.26	0.252	0.114	0.692	0.726	0.977	–	0.836
RERF-LC-KJ	0.755	0.836	0.851	0.78	0.797	0.849	0.942	0.62	0.844
SK-LU-1	0.215	0.175	0.185	0.206	0.464	0.372	0.515	0.394	0.434
SK-MES-1	0.447	0.34	0.332	0.154	0.587	0.542	0.553	0.478	0.512
SW 900	0.443	0.523	0.845	0.666	0.769	0.943	0.843	0.899	0.803
SW 1573	0.446	0.474	0.133	0.0759	0.594	0.47	0.711	–	0.655
UMC-11	0.374	0.49	0.518	0.51	0.417	0.722	0.714	0.728	0.644
